Consider 18 compounds from ChEMBL document CHEMBL1138971, “CA224, a non-planar analogue of fascaplysin, inhibits Cdk4 but not Cdk2 and arrests cells at G0/G1 inhibiting pRB phosphorylation” (Bioorg Med Chem Lett, 2006).

Activity calls are given as the source filed them. No cut-off for these calls is given here. Starred links: 1 amine or outer side, 2 acyl side, 3 side chain; linkers in the order of their positions; H or OH if unused. Positions of bridges follow the written chain, without caps; N, C: chain ends. Non-standard residues stand in square brackets, D forms with d. Residues, ends and D or L forms follow the SMILES beside them. Chains are numbered I, II in the order given. Actinocin(1to9) = Cc1c2oc3c(C)ccc(C(=O)[*:2])c3nc-2c(C(=O)[*:1])c(N)c1=O; NMeV = CN[C@H](C(=O)O)C(C)C; Sar = CNCC(=O)O

In assay [1] the test system is PC-3. Put plainly: Antiproliferative activity against PC3 cells. The class given is functional, cell-based. To be noted: Homo sapiens.
Assay [2] relates to A549. As to the kind of experiment: Antiproliferative activity against A549 cells. The settings on record: Homo sapiens. It is filed as functional, cell-based.
The target in assay [3] is Cyclin-dependent kinase 4/cyclin D1 (Homo sapiens, UniProt P11802). Put plainly: Inhibition of Cdk4/Cyclin D1. It is filed as protein-complex assay.
Assay [4] relates to Calu-1. Put plainly: Antiproliferative activity against Calu1 cells. It is filed as functional, cell-based. To be noted: Homo sapiens.
Assay [5] concerns the target Cyclin-dependent kinase 2/cyclin A (Homo sapiens, UniProt P24941). As to the kind of experiment: Inhibition of Cdk2/Cyclin A. The class given is protein-complex assay.
Assay [6] has as its system Calf thymus DNA. As to the kind of experiment: Ability to displace ethidium bromide from DNA. It is filed as nucleic-acid assay.
Assay [7] deals with LS174T. As to the kind of experiment: Antiproliferative activity against LS174T cells. The class given is functional, cell-based. To be noted: Homo sapiens.
Assay [8] has as its system Calu-1. As to the kind of experiment: Cell cycle arrest in serum-starved Calu1 cells by accumulation at G0/G1 phase after 24 hrs by FACS analysis. The class given is functional, Homo sapiens. A general note: In flow cytometry, cells or beads pass a laser one at a time.
Assay [9] concerns the target T1, DNA topoisomerase 1 (Homo sapiens) (UniProt P11387).
T1 sequence (whole entry): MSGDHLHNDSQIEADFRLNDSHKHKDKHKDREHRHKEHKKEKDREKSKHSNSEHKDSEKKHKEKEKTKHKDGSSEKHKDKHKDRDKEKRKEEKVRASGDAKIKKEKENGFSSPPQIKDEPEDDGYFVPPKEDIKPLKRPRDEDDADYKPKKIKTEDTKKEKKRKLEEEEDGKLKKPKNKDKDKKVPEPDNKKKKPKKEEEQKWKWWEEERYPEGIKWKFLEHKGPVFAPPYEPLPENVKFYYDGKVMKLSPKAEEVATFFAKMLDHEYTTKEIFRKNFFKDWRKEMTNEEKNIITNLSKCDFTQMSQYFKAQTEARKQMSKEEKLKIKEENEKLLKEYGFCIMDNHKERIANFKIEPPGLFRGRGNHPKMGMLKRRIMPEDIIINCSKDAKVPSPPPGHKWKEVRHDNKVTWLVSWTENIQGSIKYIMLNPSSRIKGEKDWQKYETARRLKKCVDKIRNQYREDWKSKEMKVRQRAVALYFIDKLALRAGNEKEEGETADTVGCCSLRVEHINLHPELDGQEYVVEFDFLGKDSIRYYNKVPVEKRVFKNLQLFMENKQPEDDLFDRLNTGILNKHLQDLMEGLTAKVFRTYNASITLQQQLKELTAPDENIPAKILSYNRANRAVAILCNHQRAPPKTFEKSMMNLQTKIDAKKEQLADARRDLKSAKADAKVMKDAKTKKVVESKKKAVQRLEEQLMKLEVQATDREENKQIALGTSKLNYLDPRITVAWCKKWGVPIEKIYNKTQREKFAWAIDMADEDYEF
As to the kind of experiment: Inhibition of DNA relaxation catalysed by topoisomerase1 at 100 uM. It is filed as functional.

Assay [10] concerns the target T1, DNA topoisomerase 1 (Homo sapiens). Put plainly: Inhibition of DNA relaxation catalysed by topoisomerase1 at 10 uM. The class given is functional.
The species entered for assay [11] is Homo sapiens. As to the kind of experiment: Selectivity for Cdk4/Cyclin D1 over Cdk2/Cyclin A.
Assay [12] addresses Cyclin-dependent kinase 4 (Homo sapiens) (UniProt P11802). Put plainly: Inhibition of Cdk4-mediated phosphorylation of pRB in Calu1 cells at ser 795 residue after 24 hrs by Western blot analysis. The class given is functional, cell-based. The settings on record: Calu-1.
For assay [13], the system named is Calu-1. Put plainly: Ratio of cell cycle arrest in serum-starved Calu1 cells at G0/G1phase to S phase after 24 hrs by FACS analysis. It is filed as functional, Homo sapiens.
The target in assay [14] is Cyclin-dependent kinase 4 (Homo sapiens) (UniProt P11802). Put plainly: Inhibition of Cdk4-mediated phosphorylation of pRB in Calu1 cells at ser 780 residue after 24 hrs by Western blot analysis. The settings on record: Calu-1. It is filed as functional, cell-based.
Assay [15] shares this target. As to the kind of experiment: Inhibition of Cdk4-mediated phosphorylation of pRB in Calu1 cells at ser […] residue at 6.2 uM after 24 hrs by Western blot analysis. It is filed as functional, cell-based. To be noted: Calu-1.
Assay [16] concerns Calf thymus DNA. As to the kind of experiment: Ability to displace ethidium bromide from DNA at 100 uM. The class given is nucleic-acid assay.
In assay [17] the test system is Calu-1. Put plainly: Cell cycle arrest in serum-starved Calu1 cells by accumulation at G2/M phase after 24 hrs by FACS analysis. The class given is functional, Homo sapiens.
Assay [18] deals with Cyclin-dependent kinase 4 (Homo sapiens) (UniProt P11802). Put plainly: Inhibition of Cdk4-mediated phosphorylation of pRB in Calu1 cells at ser 795 residue at 6.2 uM after 24 hrs by Western blot analysis. It is filed as functional, cell-based. To be noted: Calu-1. A general note: A western blot detects proteins with antibodies after separation by electrophoresis.
Assay [19] concerns Calu-1. Put plainly: Cell cycle arrest in serum-starved Calu1 cells by accumulation at S phase after 24 hrs by FACS analysis. The class given is functional, Homo sapiens.
Assay [20] deals with Cyclin-dependent kinase 4 (Homo sapiens) (UniProt P11802). Put plainly: Inhibition of Cdk4-mediated phosphorylation of pRB in Calu1 cells at ser 780 residue at 6.2 uM after 24 hrs by Western blot analysis. The class given is functional, cell-based. The settings on record: Calu-1.
Assay [21] has the same target. Put plainly: Inhibition of Cdk4-mediated phosphorylation of pRB in Calu1 cells at ser […] residue after 24 hrs by Western blot analysis. It is filed as functional, cell-based. To be noted: Calu-1.

Sequence of Cyclin-dependent kinase 4/cyclin D1 (P11802 whole entry): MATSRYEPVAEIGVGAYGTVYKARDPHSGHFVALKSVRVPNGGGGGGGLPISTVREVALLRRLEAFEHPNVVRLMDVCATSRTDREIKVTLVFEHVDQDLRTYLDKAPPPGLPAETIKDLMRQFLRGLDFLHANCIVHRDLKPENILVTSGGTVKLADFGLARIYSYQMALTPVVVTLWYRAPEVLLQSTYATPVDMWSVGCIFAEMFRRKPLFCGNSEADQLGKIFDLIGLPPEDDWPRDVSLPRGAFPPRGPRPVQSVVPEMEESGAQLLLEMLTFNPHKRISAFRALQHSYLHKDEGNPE
Sequence of Cyclin-dependent kinase 4/cyclin D1 (P24385 whole entry, further chain): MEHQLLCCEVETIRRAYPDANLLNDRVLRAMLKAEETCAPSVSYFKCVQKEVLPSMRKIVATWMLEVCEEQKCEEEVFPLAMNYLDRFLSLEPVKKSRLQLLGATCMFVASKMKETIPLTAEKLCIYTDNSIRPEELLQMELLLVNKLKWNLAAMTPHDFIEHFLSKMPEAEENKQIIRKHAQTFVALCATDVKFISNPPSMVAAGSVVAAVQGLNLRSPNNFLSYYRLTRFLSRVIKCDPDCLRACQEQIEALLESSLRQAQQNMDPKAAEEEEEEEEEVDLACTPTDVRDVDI
Sequence of Cyclin-dependent kinase 4 (Homo sapiens) (P11802 whole entry): as the sequence (P11802 whole entry) above

For orientation: IC50 means the concentration that inhibits the measured activity by half. Low readings indicate inhibition by little substance, high ones a need for much substance. Consider `CN(CCc1c[nH]c2ccccc12)C(=O)c1ccc(F)cc1`, for which the IC50 in assay [1] worked out at 94 µM; in assay [2] it was 102 µM; in assay [3] it was 59 µM; in [4], 141 µM; in assay [5], 850 µM; in [7], 87 µM. Moreover, the outcome in assay [6] was inactive.
As for `Cc1ccc(C(=O)N(C)CCc2c[nH]c3ccccc23)cc1`, the IC50 in assay [1] came to 55 µM; in assay [2] it was 92 µM; in assay [3], 63 µM; in [4], 103 µM; in assay [5], 790 µM; in assay [7], 82 µM. The outcome in [6] was inactive.
Turning to `CN(CCc1c[nH]c2ccccc12)C(=O)c1cccc(F)c1`, the IC50 came out at 98 µM in assay [1]; 106 µM in assay [2]; 88 µM in assay [3]; 136 µM in assay [4]; 765 µM in assay [5]; 97 µM in assay [7]. In addition, in assay [6], the outcome was inactive.
Turning to `CN(CCc1c[nH]c2ccccc12)C(=O)c1ccccc1Cl`, the IC50 in assay [1] came out at 92 µM; in assay [2] it was 96 µM; in [3] it was 46 µM; in assay [4], 147 µM; in [5] it was 784 µM; in [7] it was 99 µM. In assay [6], the outcome was inactive.
On to `Cc1ccccc1C(=O)N(C)CCc1c[nH]c2ccccc12`, for which the IC50 in assay [1] was 92 µM; in assay [2], 110 µM; in assay [3] it was 113 µM; in [4], 141 µM; in assay [5], 1130 µM; in [7], 105 µM. The result in assay [6] was inactive.
On to `CN(CCc1c[nH]c2ccccc12)C(=O)c1ccccc1Br`, for which the IC50 in assay [1] came to 59 µM; in assay [2], 95 µM; in assay [3], 95 µM; in assay [4], 122 µM; in assay [5], 584 µM; in [7] it was 76 µM. Further, in assay [6], the result was inactive.
In the case of `Cc1cccc(C(=O)N(C)CCc2c[nH]c3ccccc23)c1`, the IC50 in assay [1] came to 81 µM; in assay [2], 96 µM; in assay [3], 78 µM; in [4], 136 µM; in assay [5] it was 830 µM; in assay [7] it was 88 µM. Further, the outcome in [6] was inactive.
In the case of `CN(CCc1c[nH]c2ccccc12)C(=O)c1ccc(C(C)(C)C)cc1`, the IC50 worked out at 15 µM in assay [1]; 12 µM in assay [2]; 49 µM in [3]; 52 µM in assay [4]; 658 µM in assay [5]; 18 µM in [7]. Further, the outcome in assay [6] was inactive.
Consider `CN(CCc1c[nH]c2ccccc12)C(=O)c1cccc(Br)c1`, for which the IC50 in assay [1] is 66 µM; in [2] it was 91 µM; in [3], 74 µM; in [4], 144 µM; in [5] it was 635 µM; in [7] it was 89 µM. For the same compound, the outcome in assay [6] was inactive.
With `CN(CCc1c[nH]c2ccccc12)C(=O)c1ccc(Cl)cc1`, the IC50 in assay [1] is 47 µM; in assay [2], 27 µM; in assay [3], 38 µM; in assay [4], 78 µM; in assay [5], 731 µM; in [7], 42 µM. In assay [6], the outcome was inactive.
Take `COc1ccccc1C(=O)N(C)CCc1c[nH]c2ccccc12`: the IC50 amounted to 89 µM in assay [1]; 103 µM in assay [2]; 79 µM in assay [3]; 146 µM in assay [4]; 849 µM in assay [5]; 106 µM in assay [7]. The outcome in [6] was inactive.
In the case of `COc1cccc(C(=O)N(C)CCc2c[nH]c3ccccc23)c1`, the IC50 in [1] worked out at 85 µM; in assay [2], 95 µM; in assay [3], 81 µM; in assay [4] it was 139 µM; in assay [5] it was 938 µM; in assay [7], 109 µM. Besides, the result in assay [6] was inactive.
`CN(CCc1c[nH]c2ccccc12)C(=O)c1ccccc1F`: the IC50 in assay [1] stood at 108 µM; in assay [2], 103 µM; in assay [3], 103 µM; in assay [4], 145 µM; in [5], 1230 µM; in assay [7] it was 110 µM. The outcome in [6] was inactive.
`CN(CCc1c[nH]c2ccccc12)C(=O)c1cccc(Cl)c1`: the half-inhibitory concentration (IC50) is 94 µM in assay [1]; 95 µM in assay [2]; 109 µM in assay [3]; 123 µM in assay [4]; 1120 µM in assay [5]; 118 µM in assay [7]. Also, in [6], the result was inactive.
Consider `CN(CCc1c[nH]c2ccccc12)C(=O)c1ccc(Br)cc1`, for which the IC50 is 36 µM in assay [1]; 55 µM in [2]; 37 µM in assay [3]; 64 µM in assay [4]; 580 µM in [5]; 52 µM in assay [7]. The result in assay [6] was inactive.
As for `CN(CCc1c[nH]c2ccccc12)C(=O)c1ccccc1`, the IC50 in assay [1] amounted to 86 µM; in [2], 95 µM; in assay [3], 88 µM; in [4], 104 µM; in [5], 1520 µM; in assay [7], 83 µM. In addition, the result in assay [6] was inactive.
In assay [6], `Cc1c2oc3c(C)ccc(C(=O)N[C@@H]4C(=O)N[C@H](C(C)C)C(=O)N5CCC[C@H]5C(=O)N(C)CC(=O)N(C)[C@@H](C(C)C)C(=O)O[C@@H]4C)c3nc-2c(C(=O)N[C@@H]2C(=O)N[C@H](C(C)C)C(=O)N3CCC[C@H]3C(=O)N(C)CC(=O)N(C)[C@@H](C(C)C)C(=O)O[C@@H]2C)c(N)c1=O` [DACTINOMYCIN] (I: T[dV]P[Sar][NMeV] / II: T[dV]P[Sar][NMeV]; ester I:1-I:C, II:1-II:C; linker I:N-II:N via Actinocin(1to9)) gave an IC50 of 35 µM.
In the case of `CN(CCc1c[nH]c2ccccc12)C(=O)c1ccc(-c2ccccc2)cc1`, the Activity in assay [8] was 64%; in assay [16], less than 5%; in assay [17], 30%; in assay [19] it was 4%. Moreover, the IC50 in assay [1] stood at 6.2 µM; in assay [2], 3.5 µM; in assay [3] it was 6.2 µM; in assay [4], 11.5 µM; in assay [5], 521 µM; in assay [7], 3.5 µM. Besides, the result in assay [9], in assay [10] and in [6] was inactive. For the same compound, in [11], the Selectivity ratio was 100. In addition, the outcome in assay [12], in assay [14], in assay [15], in assay [18], in assay [20] and in assay [21] was Active. In [13], the Ratio was found to be 16.
